According to article PMC8383318, “Preclinical Pharmacokinetics, Tissue Distribution, and Primary Safety Evaluation of Indo5, a Novel Selective Inhibitor of c-Met and Trks” (Frontiers in Pharmacology, 2021):

Assays:
[1] = parameters: species or system mice; conditions: mouse, in vivo, po, 60 mg/kg
[2] = Pharmacokinetic study in rat plasma (IV and oral), LC-MS/MS, non-compartmental analysis; assay type: in vivo, Wistar rats
Procedure: For intravenous (IV) treatment, Indo5 was dissolved in DMSO (solution, 1 mg/ml) and injected into the lateral tail vein of rats (1 mg/kg, n = 3). For intragastric treatment, Indo5 was dissolved in 5% CMC-Na (suspension, 20 mg/ml). The rats were orally administered with Indo5 (100 mg/kg, n = 3) using a 20-G gavage needle. All of the animals were given a standard diet 4 h after the dosing. Blood samples (approximately 400 μl) were collected from each rat and placed into heparinized tubes before the dosing, and at 5, 15, 30, 60, 120, 240, and 480 min after the dosing. Plasma (100 μl) was harvested by centrifuging blood samples at 3,600 g for 10 min at room temperature followed by immediate processing for the analyses.
Briefly, 400 μl acetonitrile was added to 100 μl rat plasma or tissue homogenate, vortexed for 30 s, and centrifuged at 10,000 g for 10 min at room temperature to precipitate proteins. Subsequently, the supernatant (40 μl) was introduced into the HPLC/MS system. Plasma or tissue concentrations of Indo5 were determined using HPLC-MS/MS validated for pharmacokinetics.
The plasma concentration–time data obtained after intravenous and intragastric administrations were subjected to non-compartmental analyses based on the statistical moment theory. Pharmacokinetic parameters were calculated using WinNorlin 5.2 (Certara; www.certara.com/). These parameters included the maximum plasma concentration (Cmax), time to reach Cmax (Tmax), elimination half-life (t1/2), area under the plasma concentration–time curve from time zero to infinity (AUC0–∞), mean residence time (MRT), and clearance (CL). The absolute oral bioavailability was calculated by dividing the AUCtot obtained from oral administration by the AUCtot obtained from IV administration, and the calculation was adjusted using the doses that had been administered via oral and IV routes.

TrkB = system: TrkB; parameters: method as in Luo et al., 2019; conditions: ref Luo et al., 2019; read-out: half-maximal inhibitory concentration, TrkB kinase activity; cited from earlier work
[3] = Tissue-distribution study in rats; assay type: in vivo, Wistar rats
HCC cells = system: HCC cells; parameters: method as in Luo et al., 2019; conditions: ref Luo et al., 2019, cited from earlier work
TrkA = system: TrkA; parameters: method as in Luo et al., 2019; conditions: ref Luo et al., 2019; read-out: half-maximal inhibitory concentration, TrkA kinase activity; cited from earlier work
[4] = oral (p.o.) 100 mg/kg in CMC-Na suspension, n = 3

Cc1ccccc1NS(=O)(=O)c1ccc2c(c1)C(=Cc1nc3ccccc3[nH]1)C(=O)N2 [Indo5, 3-(1H-benzimidazol-2-methylene)-5-(2-methylphenylaminosulfo)-2-indolone]
histological analysis of liver tissue [1]: no pathological changes
number and frequencies of immune cells in the liver (flow cytometry) [1]: did not affect the number or frequencies of immune cells in the liver
Tmax ([2]; IV 1 mg/kg): 1 min
AUC0-t ([2]; IV 1 mg/kg in DMSO, n = 3): 158.6 ± 27.9 ng·h/mL
AUC0-∞ ([2]; IV 1 mg/kg in DMSO, n = 3): 163.4 ± 28.3 ng·h/mL
CL ([2]; IV 1 mg/kg in DMSO, n = 3): 6,121.6 ± 1,124.8 ml/h/kg
Cmax ([2]; IV 1 mg/kg in DMSO, n = 3): 1,565.3 ± 286.2 ng/ml
MRT0-t ([2]; IV 1 mg/kg in DMSO, n = 3): 10.8 ± 2.4 min
MRT0-∞ ([2]; IV 1 mg/kg in DMSO, n = 3): 15.6 ± 3.6 min
Tmax ([2]; IV 1 mg/kg in DMSO, n = 3): 1 min
t1/2 ([2]; IV 1 mg/kg in DMSO, n = 3): 37.8 ± 6.6 min
AUC0-t [2, 4]: 251.5 ± 43.5 ng·h/mL
AUC0-∞ [2, 4]: 255.7 ± 44.9 ng·h/mL
CL [2, 4]: 391056.4 ± 77,945.8 ml/h/kg
Cmax [2, 4]: 54.7 ± 10.4 ng/mL
MRT0-t [2, 4]: 172 ± 36.6 min
MRT0-∞ [2, 4]: 179 ± 37.8 min
Tmax [2, 4]: 120 ± 28.8 min
Vd [2, 4]: 706.349 ± 106.9412 L/kg
t1/2 [2, 4]: 75 ± 14.4 min
IC50 (TrkB): 25 nM
crossing of blood–brain and blood–testes barriers [3]: could not cross the blood–brain or blood–testes barriers
survival of mice with hepatic orthotopic tumors (HCC cells; hepatic orthotopic tumors): increases the survival
growth of HCC cells in xenograft-transplanted mice (HCC cells; xenograft-transplanted mice): significantly decreases the growth of HCC cells
IC50 (TrkA): 28 nM
